In the supplement of paper PMC10307832:

Experiments:
Assay in all cases: relative viability (nuclei count vs DMSO), 5 days (fraction); higher = more cells survive
[1] = compound: COc1cccc2cc(-c3nc([C@H]4CC[C@H](C(=O)O)CC4)n4ncnc(N)c34)[nH]c12 [OSI-027] + CS(=O)(=O)CCNCc1ccc(-c2ccc3ncnc(Nc4ccc(OCc5cccc(F)c5)c(Cl)c4)c3c2)o1 [Lapatinib] (partner 2 µM)
Outline: (§1)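 Cells from lung cancer lines were seeded into 1536-well plates and, one day later, dosed by pin tool. Treatments were either a single drug or a fixed dose of an anchor drug with five library-drug doses (not always all listed) in √10 steps. After 5 days, nuclei were stained in a one-step fixation (final 0.05% Triton X-100, 1% formaldehyde, 1 ug/ml Hoechst) and counted on 4× images, and relative viability is the treated-to-vehicle nuclei ratio, as the median of duplicate plates.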

[2] = compound: Cc1nc(NC(=O)N2CCC[C@H]2C(N)=O)sc1-c1ccnc(C(C)(C)C(F)(F)F)c1 [Alpelisib] + CC1(C)CCC(c2ccc(Cl)cc2)=C(CN2CCN(c3ccc(C(=O)NS(=O)(=O)c4ccc(N[C@H](CCN5CCOCC5)CSc5ccccc5)c(S(=O)(=O)C(F)(F)F)c4)cc3)CC2)C1 [Navitoclax] (partner 0.5 µM)
Outline: as §1

[3] = compound: CCCS(=O)(=O)Nc1ccc(F)c(C(=O)c2c[nH]c3ncc(-c4ccc(Cl)cc4)cc23)c1F [Vemurafenib] + CC(=O)Nc1cccc(-n2c(=O)n(C3CC3)c(=O)c3c(Nc4ccc(I)cc4F)n(C)c(=O)c(C)c32)c1 [Trametinib] (partner 0.02 µM)
Outline: as §1

[4] = compound: Cc1nc(NC(=O)N2CCC[C@H]2C(N)=O)sc1-c1ccnc(C(C)(C)C(F)(F)F)c1 [Alpelisib] + N=C(N)NC(=N)NCCc1ccccc1 [Phenformin] (partner 250 µM)
Outline: as §1

Cell Line	relative viability ([1]; first compound 0.01 µM)	relative viability ([1]; first compound 0.03162 µM)	relative viability ([1]; first compound 0.1 µM)	relative viability ([1]; first compound 0.3162 µM)	relative viability ([1]; first compound 1 µM)	relative viability ([2]; first compound 0.04 µM)	relative viability ([2]; first compound 0.1265 µM)	relative viability ([2]; first compound 0.4 µM)	relative viability ([2]; first compound 1.265 µM)	relative viability ([2]; first compound 4 µM)	relative viability ([3]; first compound 0.03162 µM)	relative viability ([3]; first compound 0.1 µM)	relative viability ([3]; first compound 0.3162 µM)	relative viability ([3]; first compound 1 µM)	relative viability ([4]; first compound 0.04 µM)	relative viability ([4]; first compound 0.1265 µM)	relative viability ([4]; first compound 0.4 µM)	relative viability ([4]; first compound 1.265 µM)	relative viability ([4]; first compound 4 µM)
NCI-H460	1.11	0.716	0.814	0.536	0.102	1.06	1.25	1.08	0.701	0.299	0.137	0.131	0.138	0.218	0.484	0.526	0.554	0.447	0.142
NCI-H520	0.832	0.835	0.666	0.408	0.235	1.02	0.905	1.07	1.03	0.822	0.688	0.599	0.706	0.662	0.55	0.439	0.417	0.316	0.311
NCI-H596	1.05	1.19	0.934	0.742	0.832	0.928	0.919	0.815	0.52	0.418	0.792	0.723	0.885	0.888	0.669	0.709	0.695	0.421	0.329
NCI-H647	1.11	1.02	1.17	0.843	0.443	1.04	1.03	1.22	0.83	0.948	0.496	0.435	0.37	0.488	0.396	0.421	0.53	0.378	0.359
NCI-H727	0.906	0.875	0.692	0.666	0.577	0.33	0.303	0.411	0.244	0.137	0.407	0.374	0.487	0.399	0.533	0.555	0.498	0.412	0.215
NCI-H838	0.937	0.975	0.868	0.584	0.377	1.02	1.08	1.15	1.04	1.01	0.527	0.528	0.257	0.548	0.523	0.507	0.549	0.41	0.355
NCI-H1355	1.13	0.957	0.873	0.561	0.363	0.89	1.02	1.07	0.927	0.84	0.454	0.35	0.464	0.523	0.421	0.404	0.438	0.433	0.332
NCI-H1395	0.854	0.98	0.829	0.701	0.735	1.18	1.12	1.45	0.984	0.927	1.04	1.03	0.89	0.971	0.458	0.395	0.46	0.374	0.434
